Results taken from patent US20120197004A1, “NOVEL ANTI-MICROBIAL PEPTIDOMIMETIC COMPOUNDS AND METHODS TO CALCULATE ANTI-MICROBIAL ACTIVITY” (priority 2006, published 2012).
Converted amounts (≈) assume the structure as drawn. Read-outs that look alike come from different tables or passages of the source. Where a SMILES comes first, the peptide text is derived from it. [ ]: non-standard residue; d: D form. ξ: configuration not given here. Oic = O=C(O)[C@@H]1C[C@@H]2CCCC[C@@H]2N1; Tic = O=C(O)[C@@H]1Cc2ccccc2CN1; 2Thi = N[C@@H](Cc1cccs1)C(=O)O; ξTic = O=C(O)C1Cc2ccccc2CN1; ξOic = O=C(O)C1CC2CCCCC2N1; Dab = NCC[C@H](N)C(=O)O; Ahx = NCCCCCC(=O)O; GABA = NCCCC(=O)O; βAla = NCCC(=O)O

Assays:
[1] = in vitro; conditions: human, microsomes, pH 7.4
[2] = test system: Plague CO92; conditions: in vitro MIC
[3] = in vitro; conditions: dog, microsomes, pH 7.4
[4] = in vitro; conditions: mouse, microsomes, pH 7.4
[5] = in vitro; conditions: rat, microsomes, pH 7.4
[6] = test system: B. melitensis 16M; conditions: in vitro MIC
[7] = test system: Bacillus anthracis Ames; conditions: in vitro MIC
[8] = test system: F. tularensis SCHU-S4; conditions: in vitro MIC
[9] = test system: Staphylococcus aureus Methicillin/Gentamicin/Tetracycline Resistant (ATCC 33592); conditions: in vitro MIC; tested at 100, 30, 10, 3, 1, 0.3 and 0.1 μM in 1% DMSO
[10] = test system: Mycobacterium ranae (ATCC 110); conditions: ATCC 110
[11] = in vitro; conditions: monkey, microsomes, pH 7.4
[12] = test system: Bacillus subtillis (ATCC 43223); conditions: ATCC 43223
[13] = test system: red blood cells
[14] = test system: Salmonella typhimurium (ATCC 13311); conditions: ATCC 13311

SMILES | remaining at 0.25 h, 1 μM [1] | remaining at 0.5 h, 1 μM [3] | remaining at 1 h, 1 μM [3] | remaining at 0.25 h, 1 μM [4] | remaining at 0.5 h, 1 μM [4] | remaining at 1 h, 1 μM [4] | remaining at 0.25 h, 1 μM [5] | remaining at 0.5 h, 1 μM [5] | Minimum Inhibitory Concentration B. melitensis 16M [6] | Minimum Inhibitory Concentration F. tularensis SCHU-S4 [8] | Minimum Inhibitory Concentration Staphylococcus aureus ME/GM/TC resistant [9] | Minimum Inhibitory Concentration Mycobacterium ranae [10] | remaining at 1 h, 1 μM [5] | remaining at 0.5 h, 1 μM [11] | further results
CC(=O)NCC(=O)N[C@@H](Cc1ccccc1)C(=O)N1Cc2ccccc2CC1C(=O)N1C(C(=O)NCC(=O)N[C@@H](CCCCN)C(=O)N2Cc3ccccc3CC2C(=O)N2C(C(=O)NCC(=O)N[C@@H](Cc3ccccc3)C(=O)N3Cc4ccccc4CC3C(=O)N3C(C(=O)NCC(=O)N[C@@H](CCCCN)C(=O)N4Cc5ccccc5CC4C(=O)NCCCCCC(=O)N[C@@H](CCCCN)C(=O)N[C@@H](CCCCN)C(=O)N[C@@H](CCCCN)C(=O)N[C@@H](CCCCN)C(N)=O)CC4CCCCC43)CC3CCCCC32)CC2CCCCC21 (stereo partly drawn) [FKAB-1G-Ahx, Ac-GF-Tic-Oic-GK-Tic-Oic-GF-Tic-Oic-GK-Tic-Ahx-KKKK-CONH2] (Ac-GF[ξTic][ξOic]GK[ξTic][ξOic]GF[ξTic][ξOic]GK[ξTic][Ahx]KKKK-NH2) | 112% | 79% | 84% | 97% | 98% | 113% | 120% | 106% | >500 µg/mL | 250 µg/mL | 30 µM | 10 µM | – | – | Minimum Inhibitory Concentration Plague CO92 ([2]; listed as 54): 15.6 µg/mL; Minimum Inhibitory Concentration Bacillus anthracis Ames ([7]; listed as 54): 1.95 µg/mL
CC(=O)NCC(=O)N[C@@H](Cc1ccccc1)C(=O)N1Cc2ccccc2CC1C(=O)N1C(C(=O)NCC(=O)N[C@@H](CCCCN)C(=O)N2Cc3ccccc3CC2C(=O)N2C(C(=O)NCC(=O)N[C@@H](Cc3ccccc3)C(=O)N3Cc4ccccc4CC3C(=O)N3C(C(=O)NCC(=O)N[C@@H](CCCCN)C(=O)N4Cc5ccccc5CC4C(=O)NCCCC(=O)N[C@@H](CCCCN)C(=O)N[C@@H](CCCCN)C(=O)N[C@@H](CCCCN)C(=O)N[C@@H](CCCCN)C(N)=O)CC4CCCCC43)CC3CCCCC32)CC2CCCCC21 (stereo partly drawn) [FKAB-1G-Gaba, Ac-GF-Tic-Oic-GK-Tic-Oic-GF-Tic-Oic-GK-Tic-Gaba-KKKK-CONH2] (Ac-GF[ξTic][ξOic]GK[ξTic][ξOic]GF[ξTic][ξOic]GK[ξTic][GABA]KKKK-NH2) | 118% | 80% | 86% | 88% | 71% | 66% | 113% | 72% | >500 µg/mL | >500 µg/mL | 10 µM | 3 µM | 104% | 120% | Minimum Inhibitory Concentration Plague CO92 ([2]; listed as 53): 31.25 µg/mL; Minimum Inhibitory Concentration Bacillus anthracis Ames ([7]; listed as 53): 0.98 µg/mL; remaining at 0.25 h, 1 μM [11]: 117%
CC(=O)NCC(=O)N[C@@H](Cc1ccccc1)C(=O)N1Cc2ccccc2CC1C(=O)N1C(C(=O)NCC(=O)N[C@@H](CCN)C(=O)N2Cc3ccccc3CC2C(=O)N2C(C(=O)NCC(=O)N[C@@H](Cc3ccccc3)C(=O)N3Cc4ccccc4CC3C(=O)N3C(C(=O)NCC(=O)N[C@@H](CCN)C(=O)N4Cc5ccccc5CC4C(=O)N[C@@H](CCN)C(=O)N[C@@H](CCN)C(=O)N[C@@H](CCN)C(=O)N[C@@H](CCN)C(N)=O)CC4CCCCC43)CC3CCCCC32)CC2CCCCC21 (stereo partly drawn) [FKAB-1Gz, Ac-GF-Tic-Oic-G-Dab-Tic-Oic-GF-Tic-Oic-G-Dab-Tic-Dab-Dab-Dab-Dab-CONH2] (Ac-GF[ξTic][ξOic]G[Dab][ξTic][ξOic]GF[ξTic][ξOic]G[Dab][ξTic][Dab][Dab][Dab][Dab]-NH2) | – | – | 3% | 74% | 29% | 42% | 21% | 7% | >500 µg/mL | 125 µg/mL | 10 µM | 10 µM | 80% | 119% | Minimum Inhibitory Concentration Plague CO92 ([2]; listed as 55): 15.6 µg/mL; Minimum Inhibitory Concentration Bacillus anthracis Ames ([7]; listed as 55): 0.98 µg/mL
CC(=O)NCC(=O)N[C@@H](Cc1ccccc1)C(=O)N1Cc2ccccc2C[C@H]1C(=O)N1[C@H](C(=O)NCC(=O)N[C@@H](CCCCN)C(=O)N2Cc3ccccc3C[C@H]2C(=O)N2[C@H](C(=O)NCC(=O)N[C@@H](Cc3ccccc3)C(=O)N3Cc4ccccc4C[C@H]3C(=O)N3[C@H](C(=O)NCC(=O)N[C@@H](CCCCN)C(=O)N4Cc5ccccc5C[C@H]4C(=O)NCCC(=O)N[C@@H](CCCCN)C(=O)N[C@@H](CCCCN)C(=O)N[C@@H](CCCCN)C(=O)N[C@@H](CCCCN)C(N)=O)C[C@@H]4CCCC[C@@H]43)C[C@@H]3CCCC[C@@H]32)C[C@@H]2CCCC[C@@H]21 [FKAB-1G-βA, Ac-GF-Tic-Oic-GK-Tic-Oic-GF-Tic-Oic-GK-Tic-βAla-KKKK-CONH2] (Ac-GF[Tic][Oic]GK[Tic][Oic]GF[Tic][Oic]GK[Tic][βAla]KKKK-NH2) | – | 66% | 105% | 11% | – | – | 118% | – | >500 µg/mL | 250 µg/mL | 30 µM | 10 µM | 44% | – | Minimum Inhibitory Concentration Plague CO92 ([2]; listed as 52): 31.25 µg/mL; Minimum Inhibitory Concentration Bacillus anthracis Ames ([7]; listed as 52): 1.95 µg/mL
CC(=O)NCC(=O)N[C@@H](Cc1ccccc1)C(=O)N1Cc2ccccc2CC1C(=O)NCC(=O)N[C@@H](CCCCN)C(=O)N1Cc2ccccc2CC1C(=O)NCC(=O)N[C@@H](Cc1ccccc1)C(=O)N1Cc2ccccc2CC1C(=O)NCC(=O)N[C@@H](CCCCN)C(=O)N1Cc2ccccc2CC1C(=O)N[C@@H](CCCCN)C(=O)N[C@@H](CCCCN)C(=O)N[C@@H](CCCCN)C(=O)N[C@@H](CCCCN)C(N)=O (some centres unmarked) [FKAB-1Gg, Ac-GF-Tic-GK-Tic-GF-Tic-GK-Tic-KKKK-CONH2] (Ac-GF[ξTic]GK[ξTic]GF[ξTic]GK[ξTic]KKKK-NH2) | – | – | – | – | – | – | – | – | >500 µg/mL | 250 µg/mL | – | – | – | – | MIC Bacillus Subtillis [12]: 10.00 µM (≈ 19.9 µg/mL); Minimum Inhibitory Concentration Plague CO92 ([2]; listed as 34): 31.25 µg/mL; Minimum Inhibitory Concentration Bacillus anthracis Ames ([7]; listed as 34): 0.98 µg/mL; % hemolysis 100/25 μM (first value) ([13]; 100 μM): 6%; % hemolysis 100/25 μM (second value) [13]; 25: 4.9%; MIC Salmonella typhimurium [14]: 100 µM (≈ 199 µg/mL); MIC Mycobacterium ranae [10]: 30.00 µM (≈ 59.6 µg/mL)
CC(=O)NCC(=O)N[C@@H](Cc1ccccc1)C(=O)N1Cc2ccccc2CC1C(=O)N1C(C(=O)NCC(=O)N[C@@H](Cc2c[nH]c3ccccc23)C(=O)N2Cc3ccccc3CC2C(=O)N2C(C(=O)NCC(=O)N[C@@H](Cc3ccccc3)C(=O)N3Cc4ccccc4CC3C(=O)N3C(C(=O)NCC(=O)N[C@@H](Cc4c[nH]c5ccccc45)C(=O)N4Cc5ccccc5CC4C(=O)N[C@@H](CCCCN)C(=O)N[C@@H](CCCCN)C(=O)N[C@@H](CCCCN)C(=O)N[C@@H](CCCCN)C(N)=O)CC4CCCCC43)CC3CCCCC32)CC2CCCCC21 (stereo partly drawn) [FKAB-1G-Trp, Ac-GF-Tic-Oic-GW-Tic-Oic-GF-Tic-Oic-GW-Tic-KKKK-CONH2] (Ac-GF[ξTic][ξOic]GW[ξTic][ξOic]GF[ξTic][ξOic]GW[ξTic]KKKK-NH2) | 112% | 116% | – | 54% | 81% | 106% | – | 84% | >500 µg/mL | >500 µg/mL | 30 µM | 100 µM | 0% | 0% | Minimum Inhibitory Concentration Plague CO92 ([2]; listed as 57): >500 µg/mL; Minimum Inhibitory Concentration Bacillus anthracis Ames ([7]; listed as 57): 0.98 µg/mL; remaining at 0.25 h, 1 μM [11]: 0%; remaining at 1 h, 1 μM [11]: 0%
NCCCC[C@H](NC(=O)[C@H](CCCCN)NC(=O)[C@H](CCCCN)NC(=O)[C@H](CCCCN)NC(=O)C1Cc2ccccc2CN1C(=O)[C@H](CCCCN)NC(=O)CNC(=O)C1CC2CCCCC2N1C(=O)C1Cc2ccccc2CN1C(=O)[C@H](Cc1ccccc1)NC(=O)CNC(=O)C1CC2CCCCC2N1C(=O)C1Cc2ccccc2CN1C(=O)[C@H](CCCCN)NC(=O)CNC(=O)C1CC2CCCCC2N1C(=O)C1Cc2ccccc2CN1C(=O)[C@H](Cc1ccccc1)NC(=O)CNC(=O)[C@@H](N)Cc1cccs1)C(N)=O (stereo partly drawn) [FKAB-1G-Thi, Thi-GF-Tic-Oic-GK-Tic-Oic-GF-Tic-Oic-GK-Tic-KKKK-CONH2] (H-[2Thi]GF[ξTic][ξOic]GK[ξTic][ξOic]GF[ξTic][ξOic]GK[ξTic]KKKK-NH2) | – | 61% | – | 41% | 67% | – | 107% | 61% | >500 µg/mL | 250 µg/mL | 10 µM | 30 µM | – | – | Minimum Inhibitory Concentration Plague CO92 ([2]; listed as 56): 15.6 µg/mL; Minimum Inhibitory Concentration Bacillus anthracis Ames ([7]; listed as 56): 1.95 µg/mL
